Measurements reported in patent publication US20240279221A1, “HETEROCYCLIC COMPOUNDS AND METHODS OF USE” (Schrödinger, Inc., priority 2021, published 2024).

target: SOS1:KRAS (G12C) interaction (Homo sapiens (Human), UniProt Q07889); assay: SOS1-KRas(G12C) FRET Assay; format: binding; conditions: 0.5 nM His10-SOS1 (res. 564-1049), 2.5 nM GST-KRAS (res. 1-169, G12C); read-out: SOS-KRas(G12C) FRET IC50
Procedure: Inhibition of the SOS1:KRAS interaction was measured using purified GST-tagged KRAS (res. 1-169, G12C, purified based on Hillig, et al., Proc Natl Acad Sci USA (2019); 116(7):2551-2560) and recombinant His10-SOS1 (res. 564-1049; purified based on Hillig, et al.). The final assay was performed at 20 uL with 0.5 nM SOS1 protein and 2.5 nM KRAS protein in a buffer of PBS, 0.1% BSA, 5 mM MgCl2, 0.0025% Igepal, 100 mM KF, 5 mM DTT in a white 384 square well OptiPlate (PerkinElmer, Cat. 6007290). A 2× KRAS working solution was prepared in an assay buffer containing 5 nM GST-KRAS G12C and 2 nM anti-GST-Eu(K) (Cisbio, Cat. 61GSTKLA) and pre-incubated for 15 minutes at 25° C. Compounds were serially diluted in 100% DMSO from 2 mM (positive control, compound I-13, PCT Publ. No. WO2018/115380) or 20 mM and then diluted 1:20 in assay buffer before incubation with a solution of SOS1 protein mixed 1:5 with anti-6His-XL665 FRET donor (Cisbio, Cat. 61HISXL) for 15 minutes at 25° C. before addition of 2× KRAS working solution. The final DMSO concentration is 0.5%. Plates were incubated at RT for 2 hrs before the FRET signal was measured using Envision at emission 665 nm and 615 nm. FRET signal was converted to percentage of protein-protein interaction using the following equation:
[formula] • C: signal with compound treatment • P: signal for positive control (DMSO) • N: signal for negative control (no SOS1 added) • IC50 and Hill coefficients were obtained using Graph Pad Prism (Graph Pad software, Inc, USA) with non-linear regression analysis.

Chain of SOS1:KRAS (G12C) interaction (Q07889 564-1049, stated change not applied): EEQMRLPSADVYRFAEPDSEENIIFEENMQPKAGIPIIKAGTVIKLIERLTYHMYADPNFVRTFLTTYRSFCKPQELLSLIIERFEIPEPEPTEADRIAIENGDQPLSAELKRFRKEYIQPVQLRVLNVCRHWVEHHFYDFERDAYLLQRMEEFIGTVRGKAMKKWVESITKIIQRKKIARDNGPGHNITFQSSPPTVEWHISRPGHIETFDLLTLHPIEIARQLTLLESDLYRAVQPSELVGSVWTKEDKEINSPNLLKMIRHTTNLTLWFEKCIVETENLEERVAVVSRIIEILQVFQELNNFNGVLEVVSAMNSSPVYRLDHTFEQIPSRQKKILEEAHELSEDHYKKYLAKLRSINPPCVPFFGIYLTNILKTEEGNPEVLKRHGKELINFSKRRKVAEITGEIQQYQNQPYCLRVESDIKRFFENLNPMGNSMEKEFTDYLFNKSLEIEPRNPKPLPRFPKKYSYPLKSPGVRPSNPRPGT

IC50 [µM] | Compound
0.0974 | Cc1c([C@@H](C)Nc2nn(C)c(=O)c3cc(=O)n([C@H]4C[C@@H]4c4cncc(F)c4)cc23)cccc1C(F)(F)F (single isomer, unassigned) [Example 91]
0.567 | Cc1c([C@@H](C)Nc2nn(C)c(=O)c3cc(=O)n([C@@H]4C[C@H]4c4cncc(F)c4)cc23)cccc1C(F)(F)F (single isomer, unassigned) [Example 92]
0.0608 | C[C@@H](Nc1nn(C)c(=O)c2cc(=O)n([C@H]3C[C@@H]3c3cncc(F)c3)cc12)c1cccc(C(F)F)c1F (single isomer, unassigned) [Example 93]
0.378 | C[C@@H](Nc1nn(C)c(=O)c2cc(=O)n([C@@H]3C[C@H]3c3cncc(F)c3)cc12)c1cccc(C(F)F)c1F (single isomer, unassigned) [Example 94]
0.394 | C[C@@H](Nc1nn(C)c(=O)c2cc(=O)n([C@]3(C(F)(F)F)CCNC3)cc12)c1cccc(C(F)F)c1F (single isomer, unassigned) [Example 95]
0.0292 | C[C@@H](Nc1nn(C)c(=O)c2cc(=O)n([C@@]3(C(F)(F)F)CCNC3)cc12)c1cccc(C(F)F)c1F (single isomer, unassigned) [Example 96]
0.0656 | C[C@@H](Nc1nn(C)c(=O)c2cc(=O)n([C@@]3(C(F)(F)F)CCN(C)C3)cc12)c1cccc(C(F)F)c1F (single isomer, unassigned) [Example 97]
0.989 | C[C@@H](Nc1nn(C)c(=O)c2cc(=O)n([C@]3(C(F)(F)F)CCN(C)C3)cc12)c1cccc(C(F)F)c1F (single isomer, unassigned) [Example 98]
0.00903 | CC(=O)N1CC[C@@](n2cc3c(N[C@H](C)c4cccc(C(F)F)c4F)nn(C)c(=O)c3cc2=O)(C(F)(F)F)C1 (single isomer, unassigned) [Example 99]
1.92 | CC(=O)N1CC[C@](n2cc3c(N[C@H](C)c4cccc(C(F)F)c4F)nn(C)c(=O)c3cc2=O)(C(F)(F)F)C1 (single isomer, unassigned) [Example 100]
0.411 | C[C@@H](Nc1nn(C)c(=O)c2cc(=O)n([C@@]3(C(F)F)CCOC3)cc12)c1cccc(C(F)F)c1F (single isomer, unassigned) [Example 119]
0.0199 | C[C@@H](Nc1nn(C)c(=O)c2cc(=O)n([C@]3(C(F)F)CCOC3)cc12)c1cccc(C(F)F)c1F (single isomer, unassigned) [Example 120]
0.125 | C[C@@H](Nc1nn(C)c(=O)c2cc(=O)n([C@H]3CCC(F)(F)C3)cc12)c1cccc(C(F)F)c1F (single isomer, unassigned) [Example 121]
0.315 | C[C@@H](Nc1nn(C)c(=O)c2cc(=O)n([C@@H]3CCC(F)(F)C3)cc12)c1cccc(C(F)F)c1F (single isomer, unassigned) [Example 122]
0.287 | C[C@@H](Nc1nn(C)c(=O)c2cc(=O)n([C@@H]3CC34CC4)cc12)c1cccc(C(F)F)c1F (single isomer, unassigned) [Example 128]
0.112 | C[C@@H](Nc1nn(C)c(=O)c2cc(=O)n([C@H]3CC34CC4)cc12)c1cccc(C(F)F)c1F (single isomer, unassigned) [Example 129]
0.0826 | C[C@@H](Nc1nn(C)c(=O)c2cc(=O)n([C@H]3CC34CCC(F)(F)CC4)cc12)c1cccc(C(F)F)c1F (single isomer, unassigned) [Example 130]
0.277 | C[C@@H](Nc1nn(C)c(=O)c2cc(=O)n([C@@H]3CC34CCC(F)(F)CC4)cc12)c1cccc(C(F)F)c1F (single isomer, unassigned) [Example 131]
0.152 | C[C@@H](Nc1nn(C)c(=O)c2cc(=O)n([C@@H]3CC3(C)C)cc12)c1cccc(C(F)F)c1F (single isomer, unassigned) [Example 132]
0.245 | C[C@@H](Nc1nn(C)c(=O)c2cc(=O)n([C@H]3CC3(C)C)cc12)c1cccc(C(F)F)c1F (single isomer, unassigned) [Example 133]
0.0705 | C[C@@H](Nc1nn(C)c(=O)c2cc(=O)n([C@H]3C[C@@H]3C3CC3)cc12)c1cccc(C(F)F)c1F (single isomer, unassigned) [Example 135]
0.185 | C[C@@H](Nc1nn(C)c(=O)c2cc(=O)n([C@@H]3C[C@H]3C3CC3)cc12)c1cccc(C(F)F)c1F (single isomer, unassigned) [Example 136]

IC50 [µM] | Compound
0.0912 | C[C@@H](Nc1nn(C)c(=O)c2cc(=O)n([C@H]3C[C@@H]3C(F)(F)F)cc12)c1cccc(C(F)F)c1F (single isomer, unassigned) [Example 137]
0.434 | C[C@@H](Nc1nn(C)c(=O)c2cc(=O)n([C@@H]3C[C@H]3C(F)(F)F)cc12)c1cccc(C(F)F)c1F (single isomer, unassigned) [Example 138]
0.12 | CC(=O)N1C[C@H]2C[C@@]2(n2cc3c(N[C@H](C)c4cccc(C(F)F)c4F)nn(C)c(=O)c3cc2=O)C1 (single isomer, unassigned) [Example 139]
0.0313 | CC(=O)N1C[C@@H]2C[C@]2(n2cc3c(N[C@H](C)c4cccc(C(F)F)c4F)nn(C)c(=O)c3cc2=O)C1 (single isomer, unassigned) [Example 140]
0.025 | C[C@@H](Nc1nn(C)c(=O)c2cc(=O)n([C@@]34C[C@@H]3CN(C(=O)C3CC3)C4)cc12)c1cccc(C(F)F)c1F (single isomer, unassigned) [Example 141]
0.0772 | C[C@@H](Nc1nn(C)c(=O)c2cc(=O)n([C@]34C[C@H]3CN(C(=O)C3CC3)C4)cc12)c1cccc(C(F)F)c1F (single isomer, unassigned) [Example 142]
0.0078 | CC(=O)N1CC[C@@](C)(n2cc3c(N[C@H](C)c4cccc(C(F)F)c4F)nn(C)c(=O)c3cc2=O)C1 (single isomer, unassigned) [Example 143]
0.209 | CC(=O)N1CC[C@](C)(n2cc3c(N[C@H](C)c4cccc(C(F)F)c4F)nn(C)c(=O)c3cc2=O)C1 (single isomer, unassigned) [Example 144]
0.0242 | COc1c(=O)n([C@@]2(C(F)(F)F)CCOC2)cc2c(N[C@H](C)c3cccc(C(F)F)c3F)nn(C)c(=O)c12 (single isomer, unassigned) [Example 157]
0.382 | COc1c(=O)n([C@]2(C(F)(F)F)CCOC2)cc2c(N[C@H](C)c3cccc(C(F)F)c3F)nn(C)c(=O)c12 (single isomer, unassigned) [Example 158]
0.0193 | C[C@@H](Nc1nn(C)c(=O)c2cc(=O)n([C@@]3(C(F)(F)F)CCOC3)cc12)c1cccc(C(F)F)c1F (single isomer, unassigned) [Example 164]
0.424 | C[C@@H](Nc1nn(C)c(=O)c2cc(=O)n([C@]3(C(F)(F)F)CCOC3)cc12)c1cccc(C(F)F)c1F (single isomer, unassigned) [Example 165]
0.0348 | C[C@@H](Nc1nn(C)c(=O)c2cc(=O)n([C@@]3(C(F)(F)F)CCOC3)cc12)c1cccc2c(F)coc12 (single isomer, unassigned) [Example 166]
0.607 | C[C@@H](Nc1nn(C)c(=O)c2cc(=O)n([C@]3(C(F)(F)F)CCOC3)cc12)c1cccc2c(F)coc12 (single isomer, unassigned) [Example 167]
0.0135 | C[C@@H](Nc1nn(C)c(=O)c2cc(=O)n([C@@]3(C(F)(F)F)CCOC3)cc12)c1cccc2c1OCC2(F)F (single isomer, unassigned) [Example 168]
0.262 | C[C@@H](Nc1nn(C)c(=O)c2cc(=O)n([C@]3(C(F)(F)F)CCOC3)cc12)c1cccc2c1OCC2(F)F (single isomer, unassigned) [Example 169]
0.0065 | CC(=O)N1CC[C@@](n2cc3c(N[C@H](C)c4cccc5c4OCC5(F)F)nn(C)c(=O)c3cc2=O)(C(F)(F)F)C1 (single isomer, unassigned) [Example 170]
1.74 | CC(=O)N1CC[C@](n2cc3c(N[C@H](C)c4cccc5c4OCC5(F)F)nn(C)c(=O)c3cc2=O)(C(F)(F)F)C1 (single isomer, unassigned) [Example 171]
0.0138 | CC(=O)N1CC[C@@](n2cc3c(N[C@H](C)c4cccc5c(F)coc45)nn(C)c(=O)c3cc2=O)(C(F)(F)F)C1 (single isomer, unassigned) [Example 172]
2.79 | CC(=O)N1CC[C@](n2cc3c(N[C@H](C)c4cccc5c(F)coc45)nn(C)c(=O)c3cc2=O)(C(F)(F)F)C1 (single isomer, unassigned) [Example 173]
1.03 | C[C@@H](Nc1nn(C)c(=O)c2cc(=O)n(C3CC3)cc12)c1cccc2ccccc12 [Example 1, (R)-6-cyclopropyl-2-methyl-4-((1-(naphthalen-1-yl)ethyl)amino)-2,6-dihydropyrido[3,4-d]pyridazine-1,7-dione]
